Measurements published in paper PMC3748964 (Regulatory peptides, 2013).

Biological target: MT1 melatonin receptor (Oryctolagus cuniculus, UniProt G1U149)
Type: cell-based

Sequence of MT1 melatonin receptor (G1U149 1-312): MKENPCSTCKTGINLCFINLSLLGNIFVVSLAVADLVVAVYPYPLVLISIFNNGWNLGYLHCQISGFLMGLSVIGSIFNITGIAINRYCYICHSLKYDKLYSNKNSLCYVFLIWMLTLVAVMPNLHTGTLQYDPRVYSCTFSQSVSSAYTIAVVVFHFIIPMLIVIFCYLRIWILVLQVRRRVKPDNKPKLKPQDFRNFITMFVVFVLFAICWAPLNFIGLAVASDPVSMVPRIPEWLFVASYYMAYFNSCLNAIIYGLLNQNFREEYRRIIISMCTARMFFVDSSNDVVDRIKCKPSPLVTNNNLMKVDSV

**Q.** With `COc1ccc2[nH]cc(CCNC(C)=O)c2c1` [Melatonin] as the compound, how does the EC50 read?
**A.** Its EC50 is 4 ± 1 nM.
